Reference: ChEMBL document CHEMBL1143233, “Synthesis, characterization and evaluation of benzimidazole derivative and its precursors as inhibitors of MDA-MB-231 human breast cancer cell proliferation” (2008)

What follows are compounds tested on MDA-MB-231 (assay: Antiproliferative activity against human MDA-MB-231 cells at 2 mM after 72 hrs by MTS/PMS assay). Conditions: MDA-MB-231, 72 h.

SMILES	inhibition at 2000 µM [%]
N#Cc1ccc(NC(=O)c2ccc3c(c2)nc(-c2ccc(Cl)cc2Cl)n3Cc2ccc(F)cc2)cc1C(F)(F)F	26.1
N#Cc1ccc(NC(=O)c2ccc(NCc3ccc(F)cc3)c(N)c2)cc1C(F)(F)F	9.8
N#Cc1ccc(NC(=O)c2ccc(F)c([N+](=O)[O-])c2)cc1C(F)(F)F	60
N#Cc1ccc(NC(=O)c2ccc(NCc3ccc(F)cc3)c([N+](=O)[O-])c2)cc1C(F)(F)F	0
N#Cc1ccc(NC(=O)c2ccc(NCc3ccc(F)cc3)c(NC(=O)c3ccc(Cl)cc3Cl)c2)cc1C(F)(F)F	0
